Holding throughout (experiment): inhibition of tumour cell growth, NCI panel, 48 h
The test system of assay [1] is SF-539.
The test system of assay [2] is COLO 205.
Assay [3] concerns M14.
Assay [4] relates to UO-31.
The subject of assay [5] is CCRF-CEM.
The subject of assay [6] is XF498.
The subject of assay [7] is SK-MEL-28.
The test system of assay [8] is HCT-116.
In assay [9] the test system is SF-268.
Assay [10] has as its system SK-MEL-5.
Assay [11] relates to SK-MEL-2.
In assay [12] the test system is RPMI-8226.
The subject of assay [13] is M19-MEL.
Assay [14] has as its system DLD-1.
The subject of assay [15] is EKVX.
Assay [16] deals with T47D.
The test system of assay [17] is MDA-MB-231.
The test system of assay [18] is MCF7.
Assay [19] has as its system BT-549.
Assay [20] deals with DU-145.

SMILES strings stand for the structures.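 Each compound was tested at five concentrations against cells in 96-well plates for 48 hours. The concentration for 50% growth inhibition is given as GI50.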 The source made the active and inactive calls. Cut-off read from the data, not from the text of the source: active = GI50 up to about 1.1 µM and inactive = higher.

Take `O=C(c1ccccc1)c1c(CC(O)c2ccccn2)n(C(=O)c2ccccc2)c2ccccc12` (configuration not stated): the GI50 is 16.7 µM (inactive) in assay [1]; 23.1 µM (inactive) in [2]; 18.9 µM (inactive) in assay [3]; 22.1 µM (inactive) in assay [4]; 25.6 µM (inactive) in [5]; 20.4 µM (inactive) in [6]. Also, the GI50 in assay [7] was 20.4 µM (inactive); in assay [8] it was 14 µM (inactive); in assay [9] it was 28.3 µM (inactive); in assay [10] it was 13.9 µM (inactive); in assay [11], 14.9 µM (inactive); in [12], 21.3 µM (inactive). For the same compound, the GI50 in [13] is 20.8 µM (inactive); in assay [14] it was 26.9 µM (inactive).
On to `CCOC(=O)CSc1cc[nH]c(=O)n1`, for which the GI50 in assay [1] is > 100 µM (inactive); in [2] it was > 100 µM (inactive); in [3], > 100 µM (inactive); in assay [4] it was > 100 µM (inactive); in [5], > 100 µM (inactive); in assay [6], 75 µM (inactive). Also, the GI50 in assay [15], in assay [8], in [9], in assay [10], in assay [11] and in assay [12] was > 100 µM (inactive) throughout. The GI50 in [13] was > 100 µM (inactive).
`Cc1c[n+]2c3ccccc3c3ccccc3c2s1.[O-][Cl+3]([O-])([O-])[O-]`: the GI50 was 4.59 µM (inactive) in assay [1]; 7.89 µM (inactive) in assay [2]; 17.4 µM (inactive) in assay [3]; 3.25 µM (inactive) in [4]; 4.1 µM (inactive) in assay [5]; 3.19 µM (inactive) in [6]. Also, the GI50 in assay [7] is 2.25 µM (inactive); in assay [15], 4.89 µM (inactive); in assay [8], 6.37 µM (inactive); in assay [9] it was 0.697 µM (active); in assay [10], 5.35 µM (inactive); in assay [11], 12.4 µM (inactive). In addition, the results for the GI50 in assay [12], in [13] and in [14] were 8.15 µM (inactive), 4.2 µM (inactive) and 12 µM (inactive), respectively.
Consider `CCOC(=O)NN1C(=O)C(=P(c2ccccc2)(c2ccccc2)c2ccccc2)C(C(=O)OC)=C1C`, for which the GI50 in assay [1], in assay [2], in assay [3], in [4], in assay [5] and in assay [6] was > 100 µM (inactive) in each case. Also, the GI50 in [15], in [8], in assay [9], in [10], in [11] and in [12] was > 100 µM (inactive) throughout. For the same compound, the GI50 in assay [13] and in assay [14] was > 100 µM (inactive) in each case.
On to `C/C(CC(=O)Nc1ccc(C)c(C)c1)=N\N(c1ccccc1)c1ccccc1`, for which the GI50 in [1] was > 100 µM (inactive); in [2], 18.3 µM (inactive); in [3], > 100 µM (inactive); in [4], 46 µM (inactive); in assay [5], 26.4 µM (inactive); in assay [6], > 100 µM (inactive). In addition, the GI50 in assay [7] is 68.1 µM (inactive); in assay [15], > 100 µM (inactive); in [8], 43.4 µM (inactive); in [9] it was 58.7 µM (inactive); in assay [10] it was 62.7 µM (inactive); in assay [11], 55.6 µM (inactive). The GI50 in [12] is 47.1 µM (inactive); in assay [14], 55.7 µM (inactive).
Turning to `COc1ccc(C2=Nc3ccccc3SC(C)C2)cc1OC` (configuration not stated), the GI50 is 20.4 µM (inactive) in assay [2]; 18.6 µM (inactive) in [3]; 17.8 µM (inactive) in [4]; 31.8 µM (inactive) in assay [5]; 18.2 µM (inactive) in [6]; 24.6 µM (inactive) in assay [7]. Also, the GI50 in assay [15] was 24.5 µM (inactive); in [8], 17.7 µM (inactive); in assay [9] it was 22 µM (inactive); in assay [10], 17.9 µM (inactive); in assay [11], 30.3 µM (inactive); in [12], 13.8 µM (inactive).
With `COc1ccc2c(=O)c(C)c(-c3ccccc3)oc2c1CN(C)C` [DIMEFLINE], the GI50 in assay [1] was > 100 µM (inactive); in assay [2] it was > 100 µM (inactive); in assay [3] it was > 100 µM (inactive); in [4], > 100 µM (inactive); in [5], > 100 µM (inactive); in assay [6] it was 69.3 µM (inactive). Moreover, the GI50 in assay [8], in assay [10], in assay [12] and in [14] was > 100 µM (inactive) throughout.
Regarding `CCCCCCCCCCCc1noc2c1C(=O)C(O)CC2` (configuration not stated), the GI50 in assay [1] was 22.2 µM (inactive); in assay [2], 30.5 µM (inactive); in assay [3], 27.2 µM (inactive); in [4] it was 23.3 µM (inactive); in assay [5], 25.1 µM (inactive); in assay [6], 13.6 µM (inactive). The GI50 in [7] is 23.8 µM (inactive); in [15] it was 33.5 µM (inactive); in assay [8], 17.6 µM (inactive); in [9] it was 38.5 µM (inactive); in assay [10] it was 14.6 µM (inactive); in assay [11], 17.5 µM (inactive). Further, the GI50 in assay [12] is 25 µM (inactive).
Consider `NCc1cccc(O)c1O`, for which the GI50 was > 100 µM (inactive) in assay [2]; > 100 µM (inactive) in [3]; > 100 µM (inactive) in [4]; 55.3 µM (inactive) in assay [5]; > 100 µM (inactive) in assay [6]; > 100 µM (inactive) in assay [7]. The GI50 in assay [15] is > 100 µM (inactive); in assay [8], 79.8 µM (inactive); in [9], > 100 µM (inactive); in assay [10], > 100 µM (inactive); in assay [11], > 100 µM (inactive); in assay [12] it was > 100 µM (inactive). The GI50 in [13] is 48.9 µM (inactive); in assay [14] it was 90.4 µM (inactive).
As for `O=C(/C(=N/Nc1ccccc1)c1ccc([N+](=O)[O-])cc1)c1ccc([N+](=O)[O-])cc1`, the GI50 in assay [1], in assay [2], in [3], in [4], in assay [6] and in assay [7] was > 100 µM (inactive) throughout. Also, the GI50 in assay [15] was > 100 µM (inactive); in assay [8], > 100 µM (inactive); in [10], > 100 µM (inactive); in [11], > 100 µM (inactive); in assay [12], 93.3 µM (inactive); in assay [13], > 100 µM (inactive). Further, the GI50 in [14] is > 100 µM (inactive).
For the compound `CS(=O)(=O)NNS(=O)(=O)c1cccc([N+](=O)[O-])c1`, the GI50 in [1], in assay [2], in assay [3], in assay [4], in assay [5] and in assay [6] was > 100 µM (inactive) in each case. The GI50 in [15], in assay [8], in assay [10], in [11], in [12] and in assay [13] was > 100 µM (inactive) in each case. For the same compound, the GI50 in [14] is > 100 µM (inactive).
`COc1ccccc1C(=O)Nc1ccc(Cl)c(C(=O)OC(C)C)c1`: the GI50 in [1] was > 67.3 µM (inactive); in assay [2], > 61.5 µM (inactive); in assay [3] it was > 54.6 µM (inactive); in assay [4], 18.5 µM (inactive); in assay [5], 36.4 µM (inactive); in [6], 21.9 µM (inactive). Moreover, the GI50 was 36.2 µM (inactive) in assay [7]; 20.1 µM (inactive) in assay [16]; 39.9 µM (inactive) in assay [15]; 39.1 µM (inactive) in [8]; > 50.6 µM (inactive) in assay [9]; 31.8 µM (inactive) in [10]. Besides, the GI50 in [17] was > 100 µM (inactive); in [11], 31.8 µM (inactive); in assay [12], 18.3 µM (inactive); in [13], 30.8 µM (inactive); in assay [18], 42 µM (inactive); in assay [19], 64.9 µM (inactive). Also, the GI50 in [20] is 49.2 µM (inactive).
`CC(=O)OC1COC(n2c(=S)n(-c3ccccc3)c(=O)c3cc(Br)ccc32)C(OC(C)=O)C1OC(C)=O` (configuration not stated): the GI50 was 22.4 µM (inactive) in [1]; > 100 µM (inactive) in assay [2]; 30.8 µM (inactive) in assay [3]; > 100 µM (inactive) in assay [4]; > 100 µM (inactive) in assay [5]; 19.3 µM (inactive) in assay [6]. Moreover, the GI50 was 37.8 µM (inactive) in [7]; > 100 µM (inactive) in assay [15]; 23.9 µM (inactive) in [8]; 29.1 µM (inactive) in assay [9]; 54.8 µM (inactive) in assay [10]; 45.1 µM (inactive) in assay [11]. The GI50 in assay [12] was 33.9 µM (inactive); in [13] it was 53.6 µM (inactive).
Consider `O=c1c2cccnc2ncn1CCN1CCCC1`, for which the GI50 in assay [1], in assay [2], in [3], in assay [4], in [5] and in [6] was > 100 µM (inactive) in each case. The GI50 in [7], in assay [15], in assay [8], in assay [9], in assay [10] and in assay [11] was > 100 µM (inactive) in each case. Moreover, the GI50 in assay [13] and in assay [14] was > 100 µM (inactive) each time.

The values above are taken from ChEMBL document CHEMBL1201862, “PubChem BioAssay data set” (2004).
